According to ChEMBL document CHEMBL5291721, “A preclinical secondary pharmacology resource illuminates target-adverse drug reaction associations of marketed drugs” (Nat Commun, 2023):

Columns and labels:
Adenosine receptor A1 = target: T1, Adenosine receptor A1 (Homo sapiens, UniProt P30542)
T1 sequence (P30542 whole entry): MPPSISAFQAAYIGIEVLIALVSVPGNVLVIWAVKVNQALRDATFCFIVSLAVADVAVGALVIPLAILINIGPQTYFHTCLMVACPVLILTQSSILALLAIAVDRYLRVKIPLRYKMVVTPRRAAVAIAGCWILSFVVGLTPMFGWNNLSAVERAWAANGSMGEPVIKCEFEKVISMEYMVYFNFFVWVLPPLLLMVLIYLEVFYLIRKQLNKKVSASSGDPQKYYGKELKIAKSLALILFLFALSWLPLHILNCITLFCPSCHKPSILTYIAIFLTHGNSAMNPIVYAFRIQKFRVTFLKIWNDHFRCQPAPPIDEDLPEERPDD

Adenosine receptor A3 = target: T2, Adenosine receptor A3 (Homo sapiens, UniProt P0DMS8)
T2 sequence (P0DMS8 whole entry): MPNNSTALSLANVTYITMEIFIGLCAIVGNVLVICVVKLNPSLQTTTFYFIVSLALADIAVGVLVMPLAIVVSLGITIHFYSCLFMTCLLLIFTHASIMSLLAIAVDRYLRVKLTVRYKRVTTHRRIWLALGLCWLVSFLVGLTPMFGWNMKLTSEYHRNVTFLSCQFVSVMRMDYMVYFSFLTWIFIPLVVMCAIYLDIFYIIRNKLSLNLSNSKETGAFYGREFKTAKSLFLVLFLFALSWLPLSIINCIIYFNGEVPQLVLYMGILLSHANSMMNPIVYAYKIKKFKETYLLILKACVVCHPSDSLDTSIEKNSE

[1] = target: T3, Alpha-2A adrenergic receptor (Homo sapiens, UniProt P08913); format: functional, cell-based
T3 sequence (P08913 whole entry): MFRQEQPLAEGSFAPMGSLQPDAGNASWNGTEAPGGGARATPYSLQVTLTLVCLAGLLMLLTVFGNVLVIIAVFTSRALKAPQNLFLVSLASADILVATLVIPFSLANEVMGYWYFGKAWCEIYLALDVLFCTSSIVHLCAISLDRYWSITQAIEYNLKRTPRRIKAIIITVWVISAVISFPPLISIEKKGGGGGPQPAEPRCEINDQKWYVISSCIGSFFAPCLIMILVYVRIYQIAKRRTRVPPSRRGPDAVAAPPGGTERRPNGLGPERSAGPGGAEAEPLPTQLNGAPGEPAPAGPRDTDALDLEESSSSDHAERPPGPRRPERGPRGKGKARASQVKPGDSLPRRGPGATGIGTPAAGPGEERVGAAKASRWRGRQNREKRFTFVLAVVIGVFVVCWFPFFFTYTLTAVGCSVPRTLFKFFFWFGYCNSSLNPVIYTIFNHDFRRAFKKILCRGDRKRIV

[2] = target: Beta-1 adrenergic receptor (Homo sapiens, UniProt P08588); format: functional
[3] = target: T4, Type-1 angiotensin II receptor (Homo sapiens, UniProt P30556)
T4 sequence (P30556 whole entry): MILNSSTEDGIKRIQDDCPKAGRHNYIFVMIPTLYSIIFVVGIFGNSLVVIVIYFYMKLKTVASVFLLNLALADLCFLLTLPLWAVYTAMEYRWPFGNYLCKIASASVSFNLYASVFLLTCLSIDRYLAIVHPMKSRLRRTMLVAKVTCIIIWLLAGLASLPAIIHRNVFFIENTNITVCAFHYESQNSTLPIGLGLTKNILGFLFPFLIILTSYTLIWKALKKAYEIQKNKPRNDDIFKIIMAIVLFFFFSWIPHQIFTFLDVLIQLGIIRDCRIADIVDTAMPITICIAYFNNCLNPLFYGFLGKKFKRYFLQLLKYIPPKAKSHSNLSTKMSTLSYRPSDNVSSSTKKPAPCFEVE

Vasopressin V2 receptor = Vasopressin V2 receptor (Homo sapiens, UniProt P30518)
[4] = target: T5, Muscarinic acetylcholine receptor M2 (Homo sapiens, UniProt P08172); format: functional, cell-based
T5 sequence (P08172 whole entry): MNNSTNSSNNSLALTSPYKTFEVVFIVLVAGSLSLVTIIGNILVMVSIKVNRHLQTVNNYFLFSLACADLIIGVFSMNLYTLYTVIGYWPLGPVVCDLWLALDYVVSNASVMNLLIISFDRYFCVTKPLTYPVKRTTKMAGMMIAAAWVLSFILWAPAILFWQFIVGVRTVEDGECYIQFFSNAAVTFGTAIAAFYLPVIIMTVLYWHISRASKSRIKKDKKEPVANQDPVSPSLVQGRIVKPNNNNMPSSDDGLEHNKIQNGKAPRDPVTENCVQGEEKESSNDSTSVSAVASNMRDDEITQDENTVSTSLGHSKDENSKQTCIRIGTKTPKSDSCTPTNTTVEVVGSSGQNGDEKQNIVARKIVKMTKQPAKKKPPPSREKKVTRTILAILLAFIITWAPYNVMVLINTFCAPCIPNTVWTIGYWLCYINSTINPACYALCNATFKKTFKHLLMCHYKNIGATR

[5] = target: Neuronal acetylcholine receptor subunit alpha-4 (Homo sapiens, UniProt P43681)
[6] = target: Gamma-aminobutyric acid receptor subunit alpha-1 (Rattus norvegicus, UniProt P62813); format: functional
[7] = target: Glutamate receptor ionotropic, NMDA 1 (Rattus norvegicus, UniProt P35439)
Histamine H2 receptor = Histamine H2 receptor (Homo sapiens, UniProt P25021); format: functional, cell-based
Melanocortin receptor 3 = Melanocortin receptor 3 (Homo sapiens, UniProt P41968)
D(3) dopamine receptor = D(3) dopamine receptor (Homo sapiens, UniProt P35462)
Note: assay procedure not described here.

Sequence of Melanocortin receptor 3 (P41968 whole entry): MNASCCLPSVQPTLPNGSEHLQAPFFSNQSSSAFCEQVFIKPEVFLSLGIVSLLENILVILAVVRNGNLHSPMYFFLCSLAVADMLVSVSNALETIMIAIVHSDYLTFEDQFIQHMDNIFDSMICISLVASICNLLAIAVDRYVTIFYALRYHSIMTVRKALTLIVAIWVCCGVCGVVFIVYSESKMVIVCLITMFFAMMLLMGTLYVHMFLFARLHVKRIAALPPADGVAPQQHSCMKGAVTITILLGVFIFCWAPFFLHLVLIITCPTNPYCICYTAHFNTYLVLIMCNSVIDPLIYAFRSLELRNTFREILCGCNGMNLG
Sequence of Histamine H2 receptor (P25021 whole entry): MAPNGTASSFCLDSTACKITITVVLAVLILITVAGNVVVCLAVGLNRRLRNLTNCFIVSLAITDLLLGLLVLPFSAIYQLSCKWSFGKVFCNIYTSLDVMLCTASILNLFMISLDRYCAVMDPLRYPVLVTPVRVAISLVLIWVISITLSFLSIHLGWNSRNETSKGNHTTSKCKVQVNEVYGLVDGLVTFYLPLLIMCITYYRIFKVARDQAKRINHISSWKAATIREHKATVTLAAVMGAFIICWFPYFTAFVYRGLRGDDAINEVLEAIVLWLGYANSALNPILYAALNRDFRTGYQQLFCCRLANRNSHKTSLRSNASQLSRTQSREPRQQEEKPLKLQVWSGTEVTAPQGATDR
Sequence of D(3) dopamine receptor (P35462 whole entry): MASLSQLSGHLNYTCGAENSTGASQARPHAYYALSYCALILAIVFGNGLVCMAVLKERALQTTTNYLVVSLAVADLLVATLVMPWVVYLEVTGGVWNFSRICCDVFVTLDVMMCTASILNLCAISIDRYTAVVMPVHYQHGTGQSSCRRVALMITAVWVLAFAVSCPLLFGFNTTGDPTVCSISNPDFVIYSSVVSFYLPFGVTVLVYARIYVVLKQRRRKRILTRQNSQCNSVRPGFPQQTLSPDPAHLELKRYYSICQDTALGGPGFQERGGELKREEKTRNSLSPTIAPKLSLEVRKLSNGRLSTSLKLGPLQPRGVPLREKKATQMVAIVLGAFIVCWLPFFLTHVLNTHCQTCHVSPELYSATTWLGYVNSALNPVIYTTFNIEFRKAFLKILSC
Sequence of Neuronal acetylcholine receptor subunit alpha-4 (P43681 whole entry): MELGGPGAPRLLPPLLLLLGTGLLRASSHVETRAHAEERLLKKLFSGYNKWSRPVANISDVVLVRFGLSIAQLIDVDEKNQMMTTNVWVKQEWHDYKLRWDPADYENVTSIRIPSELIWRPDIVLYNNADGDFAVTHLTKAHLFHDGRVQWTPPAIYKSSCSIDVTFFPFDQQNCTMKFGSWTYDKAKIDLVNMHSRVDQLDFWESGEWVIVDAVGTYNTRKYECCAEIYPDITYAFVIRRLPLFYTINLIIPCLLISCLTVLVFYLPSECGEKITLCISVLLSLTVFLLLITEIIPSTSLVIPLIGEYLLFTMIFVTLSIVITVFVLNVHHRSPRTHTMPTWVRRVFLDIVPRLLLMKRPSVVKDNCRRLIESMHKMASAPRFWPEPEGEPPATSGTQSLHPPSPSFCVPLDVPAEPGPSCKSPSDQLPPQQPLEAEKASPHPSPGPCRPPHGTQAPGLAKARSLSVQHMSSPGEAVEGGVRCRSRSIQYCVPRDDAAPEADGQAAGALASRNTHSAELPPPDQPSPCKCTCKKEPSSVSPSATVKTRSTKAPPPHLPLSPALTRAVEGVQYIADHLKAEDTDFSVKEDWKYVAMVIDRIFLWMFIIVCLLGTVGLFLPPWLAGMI
Sequence of Gamma-aminobutyric acid receptor subunit alpha-1 (P62813 whole entry): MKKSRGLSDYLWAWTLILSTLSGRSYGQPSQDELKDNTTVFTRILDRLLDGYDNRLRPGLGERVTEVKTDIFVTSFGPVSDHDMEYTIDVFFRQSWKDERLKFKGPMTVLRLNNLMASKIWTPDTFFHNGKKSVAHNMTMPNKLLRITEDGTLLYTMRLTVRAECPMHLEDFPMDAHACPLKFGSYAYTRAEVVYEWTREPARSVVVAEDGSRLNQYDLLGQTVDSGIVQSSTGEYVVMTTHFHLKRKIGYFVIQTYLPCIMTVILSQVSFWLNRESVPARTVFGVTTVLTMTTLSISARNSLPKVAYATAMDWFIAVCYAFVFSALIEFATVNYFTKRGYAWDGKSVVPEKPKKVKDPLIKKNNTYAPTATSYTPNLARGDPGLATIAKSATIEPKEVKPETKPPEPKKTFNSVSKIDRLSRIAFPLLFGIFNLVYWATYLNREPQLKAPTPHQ
Sequence of Vasopressin V2 receptor (P30518 whole entry): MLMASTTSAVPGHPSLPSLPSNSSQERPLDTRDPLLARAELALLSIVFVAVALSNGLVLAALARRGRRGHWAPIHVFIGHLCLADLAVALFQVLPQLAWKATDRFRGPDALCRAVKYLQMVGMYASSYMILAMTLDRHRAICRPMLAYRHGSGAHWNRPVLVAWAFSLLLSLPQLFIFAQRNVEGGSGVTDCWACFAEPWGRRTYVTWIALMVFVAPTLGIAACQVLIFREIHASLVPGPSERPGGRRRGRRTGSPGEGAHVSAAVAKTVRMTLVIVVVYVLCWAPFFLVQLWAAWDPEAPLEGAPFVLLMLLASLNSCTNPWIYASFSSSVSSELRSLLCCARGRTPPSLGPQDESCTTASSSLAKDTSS
Sequence of Beta-1 adrenergic receptor (P08588 whole entry): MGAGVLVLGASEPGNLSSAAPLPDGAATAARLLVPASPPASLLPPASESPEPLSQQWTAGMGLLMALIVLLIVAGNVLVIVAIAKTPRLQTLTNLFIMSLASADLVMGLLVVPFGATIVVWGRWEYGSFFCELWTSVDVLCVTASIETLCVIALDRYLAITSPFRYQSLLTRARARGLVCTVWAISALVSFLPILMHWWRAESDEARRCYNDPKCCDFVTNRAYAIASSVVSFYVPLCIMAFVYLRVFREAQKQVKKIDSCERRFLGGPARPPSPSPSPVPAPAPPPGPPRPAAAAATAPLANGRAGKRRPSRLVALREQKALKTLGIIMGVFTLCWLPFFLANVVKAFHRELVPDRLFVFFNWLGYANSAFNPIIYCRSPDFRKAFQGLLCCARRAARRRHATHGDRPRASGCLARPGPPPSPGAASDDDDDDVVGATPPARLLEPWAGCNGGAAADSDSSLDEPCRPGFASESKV

## CCC1(CCC(C)C)C(=O)NC(=O)NC1=O [AMOBARBITAL]
Adenosine receptor A1
  AC50: > 10 µM
Adenosine receptor A3
  AC50: > 10 µM
[1]
  AC50: > 10 µM
[2]
  AC50: > 10 µM
[3]
  AC50: > 10 µM
Vasopressin V2 receptor
  AC50: > 10 µM
[4]
  AC50: > 10 µM
[5]
  AC50: > 10 µM
[6]
  AC50: > 10 µM
[7]
  AC50: > 10 µM
Histamine H2 receptor
  AC50: > 10 µM
Melanocortin receptor 3
  AC50: > 10 µM
D(3) dopamine receptor
  AC50: > 30 µM

## COc1ccc(C2C(=O)c3ccccc3C2=O)cc1 [ANISINDIONE]
Adenosine receptor A1
  AC50: > 10 µM
Adenosine receptor A3
  AC50: > 10 µM
[1]
  AC50: > 10 µM
[2]
  AC50: > 10 µM
[3]
  AC50: > 10 µM
Vasopressin V2 receptor
  AC50: > 10 µM
[4]
  AC50: > 10 µM
[5]
  AC50: > 10 µM
[6]
  AC50: > 10 µM
[7]
  AC50: > 10 µM
Histamine H2 receptor
  AC50: > 30 µM
Melanocortin receptor 3
  AC50: > 10 µM
D(3) dopamine receptor
  AC50: > 30 µM

## O=C(O)CCNC(=O)c1ccc(/N=N/c2ccc(O)c(C(=O)O)c2)cc1 [BALSALAZIDE]
Adenosine receptor A1
  AC50: > 30 µM
Adenosine receptor A3
  AC50: 27.4 µM
[1]
  AC50: > 30 µM
[2]
  AC50: > 30 µM
[3]
  AC50: 27.6 µM
Vasopressin V2 receptor
  AC50: 36.9 µM
[4]
  AC50: > 30 µM
[5]
  AC50: > 30 µM
[6]
  AC50: > 30 µM
[7]
  AC50: > 30 µM
Histamine H2 receptor
  AC50: > 30 µM
Melanocortin receptor 3
  AC50: > 30 µM
D(3) dopamine receptor
  AC50: > 30 µM

## O=C(O)c1ccc(NC(=O)[C@H](Cc2ccc(O)cc2)NC(=O)c2ccccc2)cc1 [BENTIROMIDE]
Adenosine receptor A1
  AC50: > 10 µM
Adenosine receptor A3
  AC50: > 10 µM
[1]
  AC50: > 10 µM
[2]
  AC50: > 10 µM
[3]
  AC50: > 10 µM
Vasopressin V2 receptor
  AC50: > 10 µM
[4]
  AC50: > 10 µM
[5]
  AC50: > 10 µM
[6]
  AC50: > 10 µM
[7]
  AC50: > 10 µM
Histamine H2 receptor
  AC50: > 10 µM
Melanocortin receptor 3
  AC50: > 10 µM
D(3) dopamine receptor
  AC50: > 30 µM

## NS(=O)(=O)c1cc2c(cc1Cl)N=C(CSCc1ccccc1)NS2(=O)=O [BENZTHIAZIDE]
Adenosine receptor A1
  AC50: > 10 µM
Adenosine receptor A3
  AC50: > 10 µM
[1]
  AC50: 1.7 µM
[2]
  AC50: > 10 µM
[3]
  AC50: > 10 µM
Vasopressin V2 receptor
  AC50: > 10 µM
[4]
  AC50: > 10 µM
[5]
  AC50: > 10 µM
[6]
  AC50: > 10 µM
[7]
  AC50: > 10 µM
Histamine H2 receptor
  AC50: > 30 µM
Melanocortin receptor 3
  AC50: > 10 µM
D(3) dopamine receptor
  AC50: > 30 µM

## C[C@@H]1C[C@H]2[C@@H]3CCC4=CC(=O)C=C[C@]4(C)[C@@]3(F)[C@@H](O)C[C@]2(C)[C@@]1(O)C(=O)CO [DEXAMETHASONE]
Adenosine receptor A1
  AC50: > 30 µM
Adenosine receptor A3
  AC50: > 30 µM
[1]
  AC50: > 10 µM
[2]
  AC50: > 30 µM
[3]
  AC50: > 30 µM
Vasopressin V2 receptor
  AC50: > 30 µM
[4]
  AC50: > 10 µM
[5]
  AC50: > 30 µM
[6]
  AC50: > 10 µM
[7]
  AC50: > 10 µM
Histamine H2 receptor
  AC50: > 30 µM
Melanocortin receptor 3
  AC50: > 30 µM
D(3) dopamine receptor
  AC50: > 30 µM

## CC(C)[C@@H](C)/C=C/[C@@H](C)[C@H]1CC[C@H]2/C(=C/C=C3\C[C@@H](O)CC[C@@H]3C)CCC[C@]12C [DIHYDROTACHYSTEROL]
Adenosine receptor A1
  AC50: > 10 µM
Adenosine receptor A3
  AC50: > 10 µM
[1]
  AC50: > 10 µM
[2]
  AC50: > 10 µM
[3]
  AC50: > 10 µM
Vasopressin V2 receptor
  AC50: > 10 µM
[4]
  AC50: > 10 µM
[5]
  AC50: > 10 µM
[6]
  AC50: > 10 µM
[7]
  AC50: > 10 µM
Histamine H2 receptor
  AC50: > 10 µM
Melanocortin receptor 3
  AC50: > 10 µM
D(3) dopamine receptor
  AC50: > 30 µM

## CC(C)NC[C@H](O)COc1ccc(CC(N)=O)cc1 [ESATENOLOL]
Adenosine receptor A1
  AC50: > 30 µM
Adenosine receptor A3
  AC50: > 30 µM
[1]
  AC50: > 10 µM
[3]
  AC50: > 30 µM
Vasopressin V2 receptor
  AC50: > 30 µM
[7]
  AC50: > 10 µM
Histamine H2 receptor
  AC50: > 10 µM
Melanocortin receptor 3
  AC50: > 30 µM
D(3) dopamine receptor
  AC50: > 10 µM
